Experimental data as given in US7671057B2, “Therapeutic agent for type II diabetes comprising protease-inhibiting compound” (Ono Pharmaceutical Co., Ltd., priority 2004, dated 2010).
Marks after values point to notes of the source that are not given here.

Tests used:
Format in all cases: in vivo, mouse
[1] = test system: KK-A^y/Ta Jcl mice; assay: Glucose loading test after repeated administration for 14 days (Example 1)
Description: As from Day 14 afterwards, the animals after being fasted for 18 hours or more were loaded orally with a glucose solution (2 g/kg, 10 mL/kg), whereby the blood-sugar levels were measured before, and 120 min. after, the said glucose loading. Each of the compounds was given orally to the animals 3 hours prior to the glucose loading, and the whole blood was drawn from each of the animals under anesthesia. Each of the said blood samples was centrifuged to yield a blood plasma, and the resultant blood plasmas were all preserved under freezing in a ultra-low-temperature freezer for subsequent use in the below-described measurements.
The blood-sugar level, total cholesterol level (hereinafter referred to briefly as “TC level”) and triglyceride level (hereinafter referred to briefly as “TG level”) were detected individually in accordance with the hexokinase/G-6-PDH method, enzyme method and GPO/HDAOS method, and measured with use of Biochemical Auto-Analyzer (Model AU 400, manufactured by Olympus Co. of Japan). The plasma insulin level (hereinafter referred to briefly as “IRI level”) and the plasma glucagon level (hereinafter referred to briefly as “IRG level”) were detected individually with the ELISA method (Lebisinsulin Mouse Insulin Kit, produced by K.K. Shibayagi of Japan) and the ELISA method (YK090 Glucagon EIA Kit, produced by K.K. Yanaihara Kenkyuu-sho of Japan), followed by measurement with use of a plate reader (Immuno Mini NJ-2300, Nalge Nunc International K.K. of Japan).
(§1) The blood-sugar, TC, TG, IRI and IRG levels and the body weight were expressed as a mean value±standard deviation as calculated for each group of animals. With reference to the significance test between the group treated through administration of the medium and each group treated through administration of the compound, the F test was effected to analyze the data and then, the Student's t-test and Aspin-Welch's t-test were used in cases where the variance between the two groups was determined to be equal and unequal, respectively. Referring to the significance level, less than 5% (p<0.05) was considered significant, and the significance level was expressed as divided into the two events of less than 1% (**: p<0.01) and less than 5% (*: p<0.05).

[2] = test system: KK-A^y/Ta Jcl mice; assay: Blood-sugar level, administration as admixture with food (Example 2)
Description: (§2) KK-A^y/Ta Jcl Mice (male, 6- to 7-weeks aged, the number of cases; 8 animals) were treated through individual administration, in the form of an admixture with a food, of the Test Compound 2 (N-allyl-N-{(2E)-3-[4-({4-[amino(imino)methyl]phenoxy}-carbonyl)phenyl]-2-methyl-2-propenoyl}glycine/dimethane-sulfonate) of the present invention and the Control Compound 1 (5-(4-[2-(5-ethylpyridine-2-yl)ethoxy]benzyl)-1,3-thiazolidine-2,4-dione; pioglitazone) at the daily dose of 16.8 mg/100 g-food for 7 consecutive days, whereby the control group was fed with an ordinary food alone.
(§3) Blood was drawn from the tail vein individually on the day (Day 1) preceding to administration of the Test Compound in the form of an admixture with a food, and on Days 2, 5, 7 and 14 of administration, and the blood samples were subjected to measurement of the blood-sugar level in accordance with the same procedure as described in Example 1, while, at the same time, the animals were weighed.

[3] = Body weight, administration as admixture with food (Example 2)
Description: as §2, §3

[4] = test system: KK-A^y/Ta Jcl mice; assay: Blood-sugar level after single and repeated oral administration (Example 1)
Description: On the day of initiation of administration (Day 1 of Administration), the obese/spontaneously type II diabetic mice; KK-A^y/Ta Jcl mice (male, 6-weeks aged, n=8) were treated through individual oral administration of the Test Compound 1 (ethyl N-allyl-N—[(E)-2-methyl-3-[4-(4-amidinophenoxycarbonyl)-phenyl]propenoyl]aminoacetate/methanesulfonate) of the present invention and the Control Compound 1 (5-{4-[2-(5-ethylpyridine-2-yl)ethoxy]benzyl}-1,3-thiazolidine-2,4-dione; pioglitazone) at the daily dose of 30 mg/kg, or the control medium (0.5% CMC), and blood was drawn from each animal through the orbital venous plexus 6 hours after administration. The blood-sugar levels were measured in accordance with the enzyme electrode method by use of Antosense II (manufactured by Daikin Kogyo KK of Japan). The said test was carried out while the animals were allowed free access to food and water.
Following the above-described single administration, the repeated, once-a-day forced oral administration of each compound was performed at the same daily dose for the total period of 14 consecutive days. On Days 3 and 11, blood was drawn in the same manner as described above 6 hours after administration of each compound, followed by measurement of the blood-sugar level.
as §1

[5] = test system: KK-A^y/Ta Jcl mice; assay: Weights of pancreas, liver and kidney at autopsy (Example 3)
Description: On Day 28 of administration of each compound in the form of an admixture with a food, furthermore, each animal after blood had been drawn from the tail vein was treated through individual forced oral administration of the Test Compound 2 in the form of the solutions individually consisting of 0.2, 0.6, 2.0 and 6.0 mg/mL-0.5% CMC suspension in each 5 mL/kg portion, as well as the Control Compound 1 in the form of the solutions individually consisting of 2.0 and 6 mg/mL-0.5% CMC suspension in each 5 ml/kg portion, followed by blood drawing 30 min. later and autopsy to thereby measure the weights of the pancreas, liver and kidney, whereby the control group was treated through administration of the 0.5% CMC suspension in the same portion.

[6] = day preceding administration (baseline), 16.8 mg/100 g-food group
[7] = repeated once-a-day oral 30 mg/kg, 6 hours after administration
[8] = autopsy Day 28, Dose 16.8 (g/100 g-food)

Question: With `CCc1ccc(CCOc2ccc(CC3SC(=O)NC3=O)cc2)nc1` (centres unmarked) [Control Compound 1, 5-{4-[2-(5-ethylpyridine-2-yl)ethoxy]benzyl}-1,3-thiazolidine-2,4-dione, reference compound] as the molecule, how does the “Blood-sugar level before glucose loading” value ([1]; after 14 days 30 mg/kg p.o., fasted, compound 3 hours prior to loading) read?
Answer: 156.9 ± 5.3 mg/dL

Question: What about the “Blood-sugar level 120 Min. after glucose loading” value ([1]; after 14 days 30 mg/kg p.o., glucose 2 g/kg orally) of the same molecule?
Answer: 236.9 ± 19.6 mg/dL

Question: What about the “Blood-sugar lowering action in the glucose loading test vs medium control group (in words)” value ([1]; after repeated administration for 14 consecutive days) of the same molecule?
Answer: not observed to produce any significant difference

Question: And the “Blood-sugar level Day 2” value ([2]; 16.8 mg/100 g-food admixture)?
Answer: 323.3 ± 15.7 mg/dL

Question: What about the “Blood-sugar level Day 5” value ([2]; 16.8 mg/100 g-food admixture) of the same molecule?
Answer: 350.0 ± 13.6 mg/dL

Question: What about the “Blood-sugar level Day 7” value ([2]; 16.8 mg/100 g-food admixture) of the same molecule?
Answer: 311.3 ± 19.4 mg/dL

Question: What about the “Blood-sugar level Day 14” value ([2]; 16.8 mg/100 g-food admixture) of the same molecule?
Answer: 270.5 ± 10.8 mg/dL

Question: And the “Blood-sugar level Day 1” value [2, 6]?
Answer: 309.3 ± 21.2 mg/dL

Question: And the “Body weight Day 2” value ([3]; 16.8 mg/100 g-food admixture)?
Answer: 30.4 ± 0.7 g

Question: What about the “Body weight Day 5” value ([3]; 16.8 mg/100 g-food admixture) of the same molecule?
Answer: 33.3 ± 0.8 g

Question: And the “Body weight Day 7” value ([3]; 16.8 mg/100 g-food admixture)?
Answer: 34.6 ± 0.6 g

Question: What about the “Body weight Day 14” value ([3]; 16.8 mg/100 g-food admixture) of the same molecule?
Answer: 39.4 ± 1.1 g

Question: And the “Body weight Day 1” value [3, 6]?
Answer: 29.8 ± 0.7 g

Question: What about the “Effect on body weight (in words)” value ([3]; food admixture 16.8 mg/100 g-food, time course) of the same molecule?
Answer: tendency to elevate the body weight

Question: And the “Blood-sugar level before administration” value ([4]; Day 1, before single oral administration of 30 mg/kg (baseline))?
Answer: 440.6 ± 24.3 mg/dL

Question: What about the “Blood-sugar level Day 3” value [4, 7] of the same molecule?
Answer: 224.4 ± 14.4 mg/dL

Question: What about the “Blood-sugar level Day 11” value [4, 7] of the same molecule?
Answer: 220.3 ± 8.2* mg/dL

Question: And the “Blood-sugar lowering action vs control medium group (in words)” value ([4]; single administration 30 mg/kg, 6 hours after administration)?
Answer: failed to elicit any significant blood-sugar lowering action

Question: What about the “Blood-sugar level 6 hrs. after administration” value ([4]; single oral administration, 30 mg/kg) of the same molecule?
Answer: 287.9 ± 28.6 mg/dL

Question: And the “Weight of the liver (in words)” value ([5]; autopsy Day 28)?
Answer: raise further the weight of the liver

Question: And the “Weight Kidney” value [5, 8]?
Answer: 0.49 ± 0.02 g

Question: What about the “Weight Liver” value [5, 8] of the same molecule?
Answer: 2.62 ± 0.11 g

Question: What about the “Weight Pancreas” value [5, 8] of the same molecule?
Answer: 0.36 ± 0.01 g
